Among the data in patent US10562891B2, “Quinazolinones as PARP14 inhibitors” (Ribon Therapeutics Inc., priority 2017, dated 2020) are IC50 values, retold here.

Structures can show the parent of a compound that is named as a salt.

For the test, the target named is catalytic domain of human PARP14 (Homo sapiens (Human), UniProt Q460N5). In words: Enzymatic assay for inhibition of PARP14 (DELFIA, auto-modification with biotin-NAD). It counts as biochemical. The conditions noted are these: auto-modification of PARP14 by biotin-NAD, 50 nM PARP14, 3 μM biotin-NAD. The method, boiled down: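 His-TEV-tagged PARP14 catalytic domain (50 nM) preincubated with compound 30 min at 25 °C, then auto-modified with 3 μM biotin-NAD for 3 h at 25 °C in HEPES pH 8 buffer with DTT. IC50 from 4-parameter fit, rucaparib and DMSO as controls.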
Sequence of catalytic domain of human PARP14 (Q460N5 1611-1801): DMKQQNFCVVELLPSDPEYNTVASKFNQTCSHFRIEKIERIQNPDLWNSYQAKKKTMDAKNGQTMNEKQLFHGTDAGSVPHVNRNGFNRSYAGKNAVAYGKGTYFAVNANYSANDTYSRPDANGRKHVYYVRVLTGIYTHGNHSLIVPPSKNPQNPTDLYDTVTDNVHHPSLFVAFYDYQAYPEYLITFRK
In general, IC50 refers to the concentration needed to halve the response being measured. Read a low IC50 as higher potency. In turn, `O=c1[nH]c(CS[C@H]2CC[C@H](O)CC2)nc2cc(NC3CCCC3)c(F)cc12` [Example 293, 7-(Cyclopentylamino)-6-fluoro-2-(((trans-4-hydroxycyclohexyl)thio)methyl)quinazolin-4(3H)-one] yielded an IC50 below 1000 nM. The result for `Cc1cccc2c(=O)[nH]c(CS[C@H]3CC[C@@H](N)CC3)nc12` [Example 50, 2-(((cis-4-Aminocyclohexyl)thio)methyl)-8-methylquinazolin-4(3H)-one Trifluoroacetic Acid] reads 1000 to 10000 nM; that for `N#C[C@H]1CC[C@H](Nc2cc3nc(CSC4CCOCC4)[nH]c(=O)c3c(F)c2F)CC1` [Example 360], below 1000 nM; that for `O=c1[nH]c(CSC2CCOCC2)nc2cc(Nc3cccnc3)ccc12` [Example 80, 7-(Pyridin-3-ylamino)-2-(((tetrahydro-2H-pyran-4-yl)thio)methyl)quinazolin-4(3H)-one], below 1000 nM.

In the case of `O=c1[nH]c(CSC2CCNCC2)nc2nc(OCC3CC3)ccc12` [Example 229, 7-(Cyclopropylmethoxy)-2-((piperidin-4-ylthio)methyl)pyrido[2,3-d]pyrimidin-4(3H)-one Hydrochloride], the IC50 is below 1000 nM. In the case of `Cc1cccc2c(=O)[nH]c(CS[C@H]3CCC[C@@H](CO)C3)nc12` (relative stereo) [Example 71, 2-(((cis-3-(Hydroxymethyl)cyclohexyl)thio)methyl)-8-methylquinazolin-4(3H)-one] it was 1000 to 10000 nM; in that of `O=c1[nH]c(CSC2CCOCC2)nc2cc(OCC3CCS(=O)(=O)CC3)cc(F)c12` [Example 351], below 1000 nM. In the case of `O=c1[nH]c(CSC2CCCCC2)nc2cc(NC3CCCC3)cc(F)c12` [Example 215, 2-((Cyclohexylthio)methyl)-7-(cyclopentylamino)-5-fluoroquinazolin-4(3H)-one] it was below 1000 nM; in that of `Cc1cccc2c(=O)[nH]c(CSC3CCN(C(=O)CCN(C)C)CC3)nc12` [Example 168, 2-(((1-(3-(Dimethylamino)propanoyl)piperidin-4-yl)thio)methyl)-8-methyl quinazolin-4(3H)-one], 1000 to 10000 nM; in that of `O=c1[nH]c(CSC2CCS(=O)(=O)CC2)nc2cc(NCC3CCC3)c(F)cc12` [Example 296, 7-((Cyclobutylmethyl)amino)-2-(((1,1-dioxidotetrahydro-2H-thiopyran-4-yl)thio)methyl)-6-fluoroquinazolin-4(3H)-one], below 1000 nM.

Regarding `Cc1cc(NC2CCCC2)cc2nc(CSC3CCNCC3)[nH]c(=O)c12` [Example 257, 7-(Cyclopentylamino)-5-methyl-2-((piperidin-4-ylthio)methyl)quinazolin-4(3H)-one hydrochloride], the IC50 was below 1000 nM. The result for `C[C@]1(O)CC[C@H](SCc2nc3cc(OCC4CCOCC4)cc(F)c3c(=O)[nH]2)CC1` [Example 332, 5-Fluoro-2-((((cis)-4-hydroxy-4-methylcyclohexyl)thio)methyl)-7-((tetrahydro-2H-pyran-4-yl)methoxy)quinazolin-4(3H)-one] reads below 1000 nM; that for `O=c1[nH]c(CSC2CCOCC2)nc2cc(NC3CCC3)cc(F)c12` [Example 251, 7-(Cyclobutylamino)-5-fluoro-2-(((tetrahydro-2H-pyran-4-yl)thio)methyl)quinazolin-4(3H)-one], below 1000 nM; that for `O=c1[nH]c(CSC2CCOCC2)nc2cc(OCC3COCCO3)cc(F)c12` (stereo not shown) [Example 344], below 1000 nM. The result for `O=c1[nH]c(CSC2CCOCC2)nc2cc(Nc3cnccn3)ccc12` [Example 85, 7-(Pyrazin-2-ylamino)-2-(((tetrahydro-2H-pyran-4-yl)thio)methyl)quinazolin-4(3H)-one] reads 1000 to 10000 nM; that for `CN1CC[C@H](COc2cc(F)c3c(=O)[nH]c(CS[C@H]4CC[C@H](O)CC4)nc3c2)[C@@H](F)C1` (relative stereo) [Example 334, 5-Fluoro-7-(((trans)-3-fluoro-1-methylpiperidin-4-yl)methoxy)-2-((((trans)-4-hydroxycyclohexyl)thio)methyl)quinazolin-4(3H)-one trifluoroacetic acid], below 1000 nM.
